Laboratory results reported in patent publication US9387231B2, “Compositions comprising a Brd4 antagonist and methods for the treatment of HIV” (THE CHILDREN'S HOSPITAL OF PHILADELPHIA, priority 2011, dated 2016).

Assays:
Assay type in all cases: cell-based
[1] = test system: HIV-1 NL43; experiment: Viral integration in primary resting CD4 T-cells by Alu-PCR; details: NL43, 1 μM, T48 h
Procedure: To determine if JQ1(+) affects viral integration in primary resting CD4 T-cells, the cells were purified and infected with HIV-1 NL43 or mock control. The infected cells were then cultured in the presence of 1 μM of JQ1(+) or JQ1(−) for 48 hours. Cell pellets were collected at 0 hours and 48 hours after infection. DNA was isolated and the viral integration in resting CD4 T-cells was measured by Alu-PCR.

[2] = test system: HIV LTR; experiment: Reactivation of the HIV LTR in latently infected J-Lat clones (GFP by flow cytometry); details: J-Lat clones, TNFα 20 ng/ml or PHA 1.5 μg/ml, 16 hours
Procedure: (§1) GFP expression was measured by flow cytometry. FIGS. 3B and 3C shown the percentage of cells positive for GFP (FIG. 3B) and the mean MFI of GFP (FIG. 3C) in latently infected cell lines, J-Lat clones 82, A72, A7, A2, and A1, at 16 hours after TNFα or PHA was added in the cultures in the presence of JQ1(+) or JQ1(−). […] GFP expression in cells was measured by flow cytometry and is indicated as percent of GFP+ cells in gated live cell populations. An average of 5 experiments is shown. * p<0.05, ** p<0.01, *** p<0.001. […] Average of 3 experiments is shown. * p<0.05. For FIG. 3F, J-Lat A2 and A72 cells were reactivated with TNFα (20 ng/ml) or HIV Tat protein (50 μg/ml) in the presence of JQ1(+) or JQ1(−) for 16-18 hours, and GFP expression in cells was measured by flow cytometry. One representative experiment is shown. In each dot plot, non-underlined numbers indicate percentage of GFP+ cells and underlined numbers indicate mean fluorescence of GFP (MFI).
(§2) Next, the effect of JQ1 on activation of the HIV LTR was tested using a latently infected Jurkat-derived cell clone, J-Lat clone A2. GFP expression in J-Lat clone A2 is induced upon reactivation with tumor necrosis factor-alpha (TNFα) or phytohaemagglutinin (PHA).
To further study the mechanism of how JQ1 drives reactivation of HIV latency, HIV latently infected T-cell lines—J-Lat clones A1, A2, A7, and A72—were utilized. The effect of JQ1(+) on reactivation of HIV latency in these cell lines were confirmed. TNFα (20 ng/ml) or PHA (1.5 μg/ml) was added to cultures of J-Lat clones in the presence of 1 μM JQ1(+) or JQ1(−). After 16 hours, expression of GFP was measured by flow cytometry. […] In the presence of HIV Tat, BET antagonism enhances Tat-driven transcription of the HIV LTR in J-Lat clones A2 and A72 (FIG. 3F; underlined numbers indicate mean GFP fluorescence, non-underlined numbers indicate percent of GFP+ cells). […] Displacement of Brd4 from chromatin by JQ1(+) may cause conformational change in the chromatin, exposing NF-κb binding sites, leading to increased HIV transcription and reactivation of latency.

[3] = test system: HIV-1 LTR promoter; experiment: Activation of the HIV LTR in CEMss LTR-GFP reporter cells (GFP by flow cytometry); details: CEMss LTR-GFP cells, 8 μg/ml HIV-1 Tat alone
Procedure: CEMss LTR-GFP cells were infected with NL43 and cultured in the presence of the BET antagonists JQ1(+) (1 μM) or the control enantiomer JQ1(−). GFP expression in cells was examined by flow cytometry. A representative of three experiments is shown. FIG. 2B provides a graph showing GFP expression in cells when cultured with different amounts of JQ1, as determined by flow cytometry. 0.25 μM of JQ1(+) was sufficient to dramatically increase the expression of GFP in NL43 infected CEMss LTR-GFP cells. FIGS. 2C and 2D show percentage of GFP expression (FIG. 2C) and mean fluorescence of GFP (MFI; FIG. 2D) in CEMss LTR-GFP cells cultured in the presence of JQ1(+) or JQ1(−) (1 μM), and different amount of HIV-1 Tat. FIG. 2E provides dot plots of CEMss LTR-GFP cells were cultured with increasing amounts of HIV Tat (0, 8, 16 or 32 μg/ml) in the presence of JQ1(+) or JQ1(−) (1 μM) for 1 day. Non-underlined numbers indicate percentage of GFP and underlined numbers indicate mean fluorescence of GFP (MFI).
as §1
BET antagonists also drive activation of the HIV LTR. Specifically, the effects of JQ1 on transcription from the HIV LTR were tested. CEMss LTR-GFP cells (a reporter cell line stably transfected with GFP under the control of the HIV-1 LTR promoter) were infected with NL43 and cultured in the presence of BET antagonists or controls. GFP expression was measured at days 0, 1, 2, 3, and 6 post-infection. GFP expression was higher in the presence of the BET inhibitor (JQ1) compared to controls (FIG. 2A). Further, by varying the amount of JQ1, it was determined that 0.25 μM of JQ1(+) was sufficient to dramatically increase Tat-driven HIV-1 transcription (FIG. 2B). CEMss LTR-GFP cells were also cultured in the presence of JQ1(+) or JQ1(−) (1 μM) and different amount of HIV-1 Tat (0-32 μg/ml). […] FIG. 2E provides dot plots of the experiments.
as §2

Cc1sc2c(c1C)C(c1ccc(Cl)cc1)=N[C@@H](CC(=O)OC(C)(C)C)c1nnc(C)n1-2 [JQ1(−)]
provirus/cell ([1]; Exp. 1, primary resting CD4 T-cells): 0.527 ± 0.064 provirus/cell | provirus/cell ([1]; Exp. 2, primary resting CD4 T-cells): 0.400 ± 0.0009 provirus/cell

TNFα
GFP expression (reactivation of latently infected cells) [2]: induced GFP expression

B1: HIV-1 Tat: HIV Tat protein added to reporter cell cultures (protein, UniProt P04608 1-86, looked up)
Protein Tat: MEPVDPRLEPWKHPGSQPKTACTNCYCKKCCFHCQVCFITKALGISYGRKKRRQRRRAHQNSQTHQASLSKQPTSQPRGDPTGPKE
Expression of GFP (percentage) [3]: activated
